Measurements from patent US10201533B2, “Substituted quinolizine derivatives useful as HIV integrase inhibitors” (priority 2013, dated 2019).
Read-outs that look alike come from different tables or passages of the source.

Tested on: HIV-1 (NL4-3 strain)
Assay: microbe, parasite or virus in culture
Format: cell-based
Conditions: MT4-GFP cells infected with HIV-1 NL4-3, IP or IC50 from 4-parameter dose response curve
[1] = Human immunodeficiency virus 1, NL43, 0% normal human serum (NHS), read-out: WILD TYPE CELL ASSAY Viking IP (0% NHS)
[2] = Human immunodeficiency virus 1, NL43, 100% normal human serum (NHS), read-out: WILD TYPE CELL ASSAY Viking IP (100% NHS)
[3] = 0% normal human serum (NHS), read-out: WILD TYPE CELL ASSAY Viking IP (0% NHS)
[4] = 100% normal human serum (NHS), read-out: WILD TYPE CELL ASSAY Viking IP (100% NHS)

Compound | IC50 [1] [nM] | IC50 [2] [nM] | IC50 [3] [nM] | IC50 [4] [nM]
C[C@]12CCCC[C@@]1(O)Cn1cc(C(=O)NCc3ccc(F)c(Cl)c3)c(=O)c(O)c1C2=O [Compound 97] | 2.4 | 151 | – | –
C[C@]12CCCO[C@H]1Cn1cc(C(=O)NCc3ccc(F)cc3F)c(=O)c(O)c1C2=O [Compound 8] | – | – | 1.8 | 500
C[C@]12CC=CCO[C@@H]1Cn1cc(C(=O)NCc3ccc(F)cc3F)c(=O)c(O)c1C2=O [Compound 50] | – | – | 1.6 | 293
CO[C@@]12CCCC[C@]1(C)C(=O)c1c(O)c(=O)c(C(=O)NCc3ccc(F)cc3F)cn1C2 [Compound 112] | 0.65 | 4110 | – | –
